Experimental data taken from US20230131501A1, “THERAPEUTIC USES OF INHIBITORS OF THE RNA-BINDING PROTEIN HuR” (University of Kansas, priority 2020, published 2023).

Biological target: T1, HuR protein interaction with the ARE site of Msi1 mRNA (HuR-Msi1^ARE) (Homo sapiens, UniProt Q15717)
T1 construct: full-length human HuR protein was produced by the KU COBRE-PSF Protein Purification Group; made in house
Experiment: Fluorescence polarization (FP) assay, inhibition of HuR-Msi1 ARE interaction
Assay type: binding
Conditions: full-length human HuR, read-out: Ki via FP assay
Excerpt: A fluorescence polarization (FP)-based binding assay was utilized to assess the inhibition of HuR protein interaction with the ARE site of Msi1 mRNA (“HuR-Msi1^ARE”) by compounds of interest. Briefly, full-length human HuR protein was produced by the KU COBRE-PSF Protein Purification Group and Bcl2, Msi1 and XIAP mRNA sequences (16 nt) were designed based on literature precedent^23,24,31,32. Fluorescein labeled RNAs were purchased from Dharmacon with the following sequences: Msi1 RNA: 5′-GCUUUUAUUUAUUUUG-3′-fluorescein; Bcl-2 RNA: 5′-AAAAGAUUUAUUUAUU-3′-fluorescein; XIAP RNA: 5′-UAGUUAUUUUUA UGUC-3′-fluorescein, and a 16-nt degenerative RNA with 3′-fluorescein label was used as a negative control.

T1 sequence (Q15717 whole entry): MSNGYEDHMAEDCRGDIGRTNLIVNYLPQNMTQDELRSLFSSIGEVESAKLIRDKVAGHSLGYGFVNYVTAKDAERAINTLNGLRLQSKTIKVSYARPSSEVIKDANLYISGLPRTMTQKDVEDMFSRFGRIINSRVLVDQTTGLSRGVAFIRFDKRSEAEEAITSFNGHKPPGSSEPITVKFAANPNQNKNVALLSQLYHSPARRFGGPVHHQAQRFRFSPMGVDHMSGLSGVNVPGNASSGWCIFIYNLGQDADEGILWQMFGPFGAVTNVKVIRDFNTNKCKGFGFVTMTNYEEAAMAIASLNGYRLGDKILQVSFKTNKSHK

CC(C)(C)c1ccc(S(=O)(=O)Nc2ccc3sc(/C=C/C(=O)NO)cc3c2)cc1 [KH-3]
Ki: 810 nM
